Measured values as given in PubChem BioAssay (NCI).
Several values for one entry are separate records, joined by “and”; a condition that tells them apart may be missing. Identical values can stand only once.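 All cell lines were grown in 96-well plates and treated with compound for 48 hours. At the GI50, growth is halved. TGI denotes the concentration required for complete inhibition of growth.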 Where a SMILES comes first, the peptide text is derived from it. [ ]: non-standard residue; d: D form. Orn = NCCC[CH](N)C(=O)O

Legend:
Test in all cases: NCI anticancer screen, dose series, 48 h
KM12 colon = system: KM12 colon
CAKI-1 renal = system: CAKI-1 renal
MALME-3M melanoma = system: MALME-3M melanoma
786-0 renal = system: 786-0 renal
NCI-H522 lung = system: NCI-H522 lung
SK-MEL-28 melanoma = system: SK-MEL-28 melanoma
RXF 393 renal = system: RXF 393 renal
HOP-62 NSCLC = system: HOP-62 NSCLC
RPMI-8226 leukemia = system: RPMI-8226 leukemia
CCRF-CEM leukemia = system: CCRF-CEM leukemia

Row | SMILES | GI50 (KM12 colon) [µM] | TGI (KM12 colon) | GI50 (CAKI-1 renal) | TGI (CAKI-1 renal) | GI50 (MALME-3M melanoma) | TGI (MALME-3M melanoma) | GI50 (786-0 renal) | TGI (786-0 renal) | GI50 (NCI-H522 lung) [µM] | TGI (NCI-H522 lung) | GI50 (SK-MEL-28 melanoma) [µM] | TGI (SK-MEL-28 melanoma) | GI50 (RXF 393 renal) | TGI (RXF 393 renal) | GI50 (HOP-62 NSCLC) [µM] | TGI (HOP-62 NSCLC) | GI50 (RPMI-8226 leukemia) | TGI (RPMI-8226 leukemia) | GI50 (CCRF-CEM leukemia) [µM] | TGI (CCRF-CEM leukemia) [µM]
1 | C(#Cc1ccccc1C#Cc1ccccn1)c1ccc(OCCCCCCOc2ccc(C#Cc3ccccc3C#Cc3ccccn3)cc2)cc1 | 1.65 | 8.34 µM | 5.05 µM | 12 µM | 7.76 µM | 16.3 µM | 5.55 µM | 28.8 µM | 2.55 | 13.1 µM | 6.18 | 12.4 µM | 6.91 µM | 13.6 µM | 6.51 | 14.6 µM | 0.387 µM | 10.1 µM | 0.0276 | 0.151
2 | C/C(CN1C(=O)c2ccccc2C1=O)=N\NS(C)(=O)=O |  | > 100 µM |  | > 100 µM |  | > 100 µM |  | > 100 µM |  | > 100 µM |  | > 100 µM |  | > 100 µM |  | > 100 µM |  | > 100 µM |  | > 100
3 | Cn1cc(C2=C(c3cccc(NCC(O)CO)c3)C(=O)NC2=O)c2cc(Cl)ccc21 (stereo not drawn) | 2.45 | 9.5 µM | 2.56 µM | 13.2 µM | 7.84 µM | 14.8 µM | 4.31 µM | 16.5 µM | 2.45 | 11.4 µM | 5.68 | 16.1 µM | 2.82 µM | 7.18 µM | 4.9 | 18 µM | 5.56 µM | 13.9 µM | 3.92 | > 21.8
4 | COC(=O)C1CCc2nnc(-c3cccnc3)n21 (stereo not drawn) |  | > 100 µM |  | > 100 µM |  | > 100 µM |  | > 100 µM |  | > 100 µM |  | > 100 µM |  | > 100 µM |  | > 100 µM |  | > 100 µM |  | > 100
5 | Cc1ccc(S(=O)(=O)NC(=O)Nc2nc(Cl)cc(Cl)n2)cc1 |  | > 100 µM |  | > 100 µM |  | > 100 µM |  | > 100 µM |  | 23.9 µM |  | > 100 µM |  | > 100 µM |  | > 100 µM |  | > 100 µM |  | > 100
6 | Cn1c(-c2ccccc2)c/c(=N\NS(C)(=O)=O)c2cc(S(=O)(=O)O)ccc21 |  | > 100 µM |  | > 100 µM |  | > 100 µM |  | > 100 µM |  | > 100 µM |  | > 100 µM |  | > 100 µM |  | > 100 µM |  | > 100 µM |  | > 100
7 | CC(C)CC1NC(=O)C(CCCN)NC(=O)C(C(C)C)NC(=O)C2CCCN2C(=O)C(Cc2ccccc2)NC(=O)C(CC(C)C)NC(=O)C(CCCN)NC(=O)C(C(C)C)NC(=O)C2CCCN2C(=O)C(Cc2ccccc2)NC1=O (stereo not drawn) (cyclo(FPV[Orn]LFPV[Orn]L); configuration not given here) | 0.00513 | 0.363 µM and 1.04 µM | 0.564 µM and 1.02 µM | 2.14 µM and 7.23 µM | 0.0108 µM and 0.0286 µM | 0.12 µM and 0.0929 µM | 0.0451 µM and 0.0506 µM | 0.46 µM and 1.26 µM | 0.00767 | 0.0376 µM and 0.0958 µM | 0.0395 | 0.962 µM and 1.63 µM | 0.0352 µM and 0.0515 µM | 0.72 µM and 1.44 µM | 0.00595 | 0.418 µM and 1.31 µM | < 0.00325 µM and 0.0114 µM | 0.0309 µM and 0.185 µM | 0.00814 | 0.32
8 | COc1ccc(-c2oncc2-c2cc(OC)c3c(c2)OCO3)cc1 | 2.66 | > 82.2 µM | 2.16 µM | 31.2 µM | > 100 µM | > 100 µM | 7.67 µM | > 100 µM | 1.44 | 5.77 µM | 3.21 | > 100 µM | 2.9 µM | 20.3 µM | 3.91 | > 71.1 µM | 3.93 µM | > 39.5 µM | 2.2 | > 43.6
9 | O=S(=O)(c1ccccc1)C1CN(Cc2ccccc2)CCN(Cc2ccccc2)C1 |  | > 100 µM |  | 98.9 µM |  | > 86.3 µM |  | > 100 µM |  | 34.1 µM |  | > 100 µM |  | 43.3 µM |  | > 100 µM |  | 53.4 µM |  | > 100
10 | CCCNNC(=O)c1ccc(CNC(=O)/C=C/c2ccccc2)cc1 | 0.232 | 5.05 µM | 0.174 µM | 0.733 µM | 0.0475 µM | > 100 µM | 0.314 µM | > 100 µM | 0.226 | > 100 µM | 0.146 | 0.857 µM | 0.18 µM | 0.501 µM | 0.11 | > 100 µM | 0.101 µM |  | 0.115 | > 100
11 | O=C1/C(=c2\c3ccccc3n3c(=O)c4ccccc4nc23)Nc2ccccc21 |  | > 100 µM |  | > 100 µM |  | > 100 µM |  | > 100 µM |  | > 100 µM |  | > 100 µM |  | > 100 µM |  | > 100 µM |  | > 100 µM |  | > 100
12 | CCNCCNc1cc(C2CCCC2)c(C#N)c2nc3ccccc3n12 | 4.64 | 16.6 µM | 3.59 µM | 14.5 µM | 1.73 µM | 3.45 µM | 2.69 µM | 9.79 µM | 2.26 | 5.33 µM | 1.84 | 3.68 µM | 1.81 µM | 4 µM | 3.72 | 14.9 µM | 2.69 µM | 7.35 µM | 2.46 | 7.75
13 | COc1cc2c(cc1C)NC(=O)/C2=C/c1c(C)nc2sc(C)cn12 | 40.7 | > 100 µM | 52 µM | > 100 µM | 60.1 µM | > 100 µM | > 100 µM | > 100 µM | 52.5 | > 100 µM | > 100 | > 100 µM | > 100 µM | > 100 µM | > 100 | > 100 µM | 31.3 µM | > 100 µM | 53.4 | > 100
14 | Cc1ccc(S(=O)(=O)N2C/C(=C\c3cc(F)cc(F)c3)C(=O)/C(=C/c3cc(F)cc(F)c3)C2)cc1 | 0.268 | 0.704 µM | 0.367 µM | 2.4 µM | 0.256 µM | 0.647 µM | 0.492 µM | 1.66 µM | 0.26 | 0.721 µM | 0.388 | 1.32 µM | 0.535 µM | 1.82 µM | 1.5 | 4.66 µM | 0.0362 µM | 0.254 µM | 0.0748 | 0.951
15 | Cn1c(C2CC(C)(C)c3c2c2ccccc2n3C)cc2ccccc21 (stereo not drawn) |  | > 304 µM |  | > 304 µM |  | > 304 µM |  | > 304 µM |  | > 304 µM |  | > 304 µM |  | > 304 µM |  | > 304 µM |  | > 304 µM |  | > 304
16 | O=C(Nc1ncc(Cc2ccc(Cl)cc2)s1)c1ccc2c(c1)OCCO2 | 0.0414 | > 58 µM | 0.0547 µM | 39 µM | 0.059 µM | > 86.5 µM | 0.0728 µM | > 100 µM | 0.0331 |  | 1.02 | > 100 µM | 0.0326 µM | 0.567 µM | 0.0948 | > 41.6 µM | 0.0526 µM | > 100 µM | 0.0639 | > 100
17 | N#Cc1ccccc1/C=N/O |  | > 100 µM |  | > 100 µM |  | > 100 µM |  | > 100 µM |  | > 100 µM |  | > 100 µM |  | > 100 µM |  | > 100 µM |  | > 66.7 µM |  | > 85
18 | O=C1CC23CC(=O)CC2(C1)c1ccccc1C3=O (stereo not drawn) |  | > 100 µM |  | > 100 µM |  | > 100 µM |  | > 100 µM |  | > 100 µM |  | > 100 µM |  | > 100 µM |  | > 100 µM |  | > 100 µM |  | > 100
19 | O=CN/C=C/c1ccccc1O |  | > 100 µM |  | > 100 µM |  | > 100 µM |  | > 100 µM |  | > 100 µM |  | > 100 µM |  | > 100 µM |  | > 100 µM |  | > 100 µM |  | > 100
20 | COC1(C)Cc2c(c(C)c(O)c3c2C(=O)C=C(Cl)C3=O)O1 (stereo not drawn) |  | > 100 µM |  | 42 µM |  | 19.7 µM |  | > 100 µM |  | 33 µM |  | > 66.3 µM |  | 31.8 µM |  | > 100 µM |  | 52.1 µM |  | 26.3
21 | N=c1c2c(=O)n3c(nc2nc2sc4ccc(Cl)cc4n12)-c1ccccc1Sc1ccccc1-3 | 2.9 | 12.4 µM | 2.36 µM | 12.9 µM | 2.15 µM | 9.21 µM | 2.55 µM | 6.84 µM | 1.76 | 11.4 µM | 3.91 | 16.4 µM | 3.23 µM | 16.2 µM | 3.64 | 28.3 µM | 1.44 µM | > 100 µM | 2.32 | > 100
22 | COc1ccc2c(c1)N(CCC1CCCCN1C)c1ccccc1S2 (stereo not drawn) |  | 23.6 µM |  | 21.5 µM |  | 33.7 µM |  | 29.5 µM |  | 28 µM |  | 14.2 µM |  | 21.8 µM |  | 31.2 µM |  | 29.5 µM |  | 28.9
23 | COc1ccc2c(c1)CC[C@@H]1[C@@H]2CC[C@]2(C)c3c(cc(C(=O)c4ccccc4)c4sccc34)C[C@@H]12 | > 100 | > 100 µM | > 100 µM | > 100 µM | > 100 µM | > 100 µM | > 100 µM | > 100 µM | > 100 | > 100 µM | > 100 | > 100 µM | > 100 µM | > 100 µM | > 100 | > 100 µM | > 100 µM | > 100 µM | > 100 | > 100
24 | COC(=O)c1c/c(=N\NC(=O)CC(=O)Nc2ccc(C)cc2)c2ccccc2o1 |  | > 100 µM |  | > 100 µM |  | > 100 µM |  | > 100 µM |  | > 100 µM |  | > 100 µM |  | > 100 µM |  | > 100 µM |  | > 100 µM |  | > 100
25 | Cc1cc(NC(=O)C(=O)Cc2nc3ccccc3s2)ccc1Cl |  | > 100 µM |  | > 100 µM |  | > 100 µM |  | > 100 µM |  | > 100 µM |  | > 100 µM |  | > 100 µM |  | > 100 µM |  | > 100 µM |  | > 100
